In turn, `Cc1csc(-c2cc(-c3ccncc3)c3n(c2=O)CCCc2ccncc2-3)n1` [Example 1, 9-(4-Methylthiazol-2-yl)-11-(pyridin-4-yl)-6,7-dihydro-5H-2,7a-diazadibenzo[a,c]cyclohepten-8-one] showed a melting point of 300 to 302 °C.

These data come from patent US20010053776A1, “Tricyclic pyridin-2-one analogue as a GABA receptor ligand” (priority 2000, published 2001).
